Assay results reported in patent US20060104985A1, “Dengue virus infection inhibitor” (priority 2002, published 2006).

Tests used:
[1] = tested on: binding of dengue virus to K562 cells; experiment: Inhibition of binding of dengue virus to K562 cell surface, flow cytometer (Example 2); type: cell-based
Method: After K562 cells were cultured until confluent, the cells were dispensed into a microtube to be 2×10^5 cells/0.1 ml. After this microtube was centrifuged at 4° C. for 2 minutes at 10,000 rpm, the obtained cell pellet was washed once with 1 ml of PBS containing 0.1% BSA. After a dengue virus solution (2,000 units/ml) and PG (0, 100, 200 or 500 μM) or GA1 (500 μM), which is a reference glycolipid, were preincubated in PBS containing 0.1% BSA at 4° C. for 1 hour, 100 μl of each of the solutions was added to K562 cells, and the virus was allowed to bind to the cell at 4° C. for 1 hour. Incidentally, as virus(−), only PBS containing 0.1% BSA was added in the same amount. After the reaction, the cells were washed 3 times with 1 ml of chilled PBS(−), 100 μl of a solution of human anti-flavivirus antiserum (lot No. 1), which had been diluted to 200-fold, was added, respectively, as a primary antibody, well suspended, and reacted at 4° C. for 30 minutes. The cells were washed 3 times with 1 ml of chilled PBS(−), and 100 μl of a solution of a FITC-labeled goat anti-human IgG (Zymed), which had been diluted to 50-fold, was added, respectively, as a secondary antibody and shielded from light. Then, they were reacted at 4° C. for 30 minutes. […]

[2] = tested on: binding of dengue virus to K562 cells; experiment: Inhibitory activity on binding of dengue virus to K562 cell surface, flow cytometer (Example 3); type: cell-based
Method: After K562 cells were cultured until confluent, the cells were dispensed into a microtube to be 4×10^5 cells/0.1 ml. After this microtube was centrifuged at 4° C. for 3 minutes at 3,500 rpm, the obtained cell pellet was washed once with 1 ml of PBS containing 0.1% BSA. After it was further centrifuged at 4° C. for 3 minutes at 3,500 rpm, a dengue virus stock solution was diluted with PBS containing 0.1% BSA to the concentrations of 5,000 units/ml, 2,000 units/ml, 1,000 units/ml, and 500 units/ml, respectively. Then, 100 μl of each of the solutions was added to the K562 cells, and reacted at 4° C. for 1 hour.
Incidentally, as virus(−), a solution to which only PBS containing 0.1% BSA was added in the same amount was used.
After the reaction, the cells were washed 3 times with 1 ml of chilled PBS(−), 100 μl of a solution of human anti-flavivirus antiserum (lot No. 1), which had been diluted to 200-fold, was added, respectively, as a primary antibody, well suspended, and reacted at 4° C. for 30 minutes. […]
K562 cells (1×10^5 cells) were seeded on a 24-well culture plate, and the total volume was made up to 1 ml with RPMI medium. […] The solution was transferred to a microtube, and virus binding was evaluated by the method described in (1).

[3] = tested on: dengue virus infection; settings: rhesus monkeys; cited from earlier work
[4] = tested on: dengue virus (D2Th7 strain); experiment: TLC/virus-binding assay of glycolipids; settings: HPLC fractions of the neutral glycolipid fraction of mosquito-derived C6/36 cells
Method: The neutral glycolipid fractions I to IV obtained in the foregoing (c) (10 μl each), and as a reference standard, LacCer (1 μl), CTH (2 μl), paragloboside (PG: Galβ1-4GlcNAcβ1-3Galβ1-4Glcβ1-1′Cer) (2 μl), GA1 (Galβ1-3GalNAcβ1-4Galβ1-4Glcβ1-1′Cer) (2 μl), globoside (GalNAcβ1-3Galα1-4Galβ1-4Glcβ1-1′Cer) (2 μl) were spotted on TLC plates (Polygram Sil G), developed with acetone once, and developed with CHCl3/MeOH/12 mM MgCl2 (50/40/10, by vol). Then, orcinol reagent was sprayed and the plate was heated at 110° C., whereby color reaction was developed. With regard to the neutral glycolipid fractions I to IV, TLC/virus-binding assay was carried out by the method described above.
The neutral glycolipid fraction II-2 (10 μl) obtained by the foregoing method described in (1), PI (10 μl), PG (2 μl) and globoside (1 μl) were spotted on a TLC plate (Polygram Sil G), developed with acetone once, and developed with CHCl3/MeOH/12 mM MgCl2 (50/40/10, by vol). […]
Subsequently, 2.5 ml of human anti-flavivirus antiserum diluted to 1,000-fold with Solution A was added and reacted at room temperature for 1 hour. […] Finally, the plates were reacted with 2.5 ml of a color-developing substrate solution (0.1 M citrate buffer pH 6.0 (2.5 ml), 0.11 M 4-chloro-1-naphthol in CH3CN (50 μl), 0.06 M DEPDA in CH3CN (50 μl), 30% H2O2 (5 μl)), and bound virus particles were detected. […]

[5] = tested on: infection of K562 cells with dengue virus; experiment: Virus infection test of K562 cells with oligosaccharide-pretreated dengue virus, antigen positive cells by flow cytometer; type: cell-based; settings: virus pretreated with oligosaccharide at 28° C. for 30 minutes, infection at 37° C. for 2 hours
Method: In any cases, 1 mM stock solution was prepared with sterile PBS(−). This solution was appropriately diluted and used for the infection inhibition test.
Dilution was carried out with serum-free RPMI medium (SF-RPMI) containing 0.2% BSA so as to give a final virus concentration of 3×105 FFU (focus forming unit)/sample, and the solution was stirred well and placed on ice.
To 630 μl (virus volume per 1 sample) of the dengue virus solution prepared in (2) described above, an equivalent amount of a diluted solution containing an oligosaccharide was added, stirred well, and incubated at 28° C. for 30 minutes. This solution was used as a pretreated virus solution.
In addition, as a negative control, the one obtained by mixing PBS(−) with the virus solution was used.
After K562 cells were washed once with SF-RPMI, the cells were prepared at 1×10^6 cells/ml with 0.1% BSA-SF-RPMI. This cell suspension was dispensed in 100 μl aliquots into tubes. Thereto was added the pretreated virus solution, stirred gently, and infection of cells was carried out at 37° C. for 2 hours. During this time, the solution in the tube was gently stirred every 20 minutes. After the solution was centrifuged at 3,400 rpm for 3 minutes, the virus solution was removed, and the cells were washed 3 times with 0.1% BSA-SF-RPMI. To the cell pellet, 2 ml of RPMI medium containing 2% serum (2% FCS-RPMI) was added, and suspended. […]

Galβ1-4GlcNAcβ1-3Galβ1-4Glcβ1-1′Cer [paragloboside]
inhibition of binding of dengue virus to K562 cells (FIG. 5) ([1]; PG 100, 200 or 500 μM preincubated with virus 2,000 units/ml at 4° C. for 1 hour): inhibited depending on the concentration of PG
inhibition of the binding of dengue virus to K562 cells (FIG. 6) ([2]; paragloboside 100, 200 or 500 μM, virus 2,000 units/ml): inhibition of the binding of dengue virus to K562 cells is caused depending on the concentration of paragloboside

NC(=O)c1ncn([C@@H]2O[C@H](CO)[C@@H](O)[C@H]2O)n1 [ribavirin]
adverse effects induced [3]: anemia or thrombocytosis
preventive effect against dengue virus infection [3]: did not show a preventive effect

Galβ1-4GlcNAcβ1-3Manβ1-4Glcβ1-1Cer [Fraction 15]
binding of purified glycolipids to dengue virus on TLC plate (FIG. 8) [4]: binds to the virus very strongly

GlcNAcβ1-3Manβ1-4Glcβ1-1Cer [Fraction 13]
binding of purified glycolipids to dengue virus on TLC plate (FIG. 8) [4]: binds to the virus very strongly

Galβ1-3GalNAcβ1-4Galβ1-4Glcβ1-1′Cer [GA1, reference compound]
inhibition of binding of dengue virus to K562 cells (FIG. 5) ([1]; 500 μM, preincubated with virus 2,000 units/ml at 4° C. for 1 hour): could not inhibit
effect on binding of dengue virus to the cell surface (FIG. 6) ([2]; negative control, GA1 500 μM): not affected at all

CC(=O)N[C@H]1[C@H](O[C@H]2[C@@H](O)[C@@H](CO)O[C@@H](O[C@H]3[C@H](O)[C@@H](O)C(O)O[C@@H]3CO)[C@@H]2O)O[C@H](CO)[C@@H](O[C@@H]2O[C@H](CO)[C@H](O)[C@H](O)[C@H]2O)[C@@H]1O (stereo partly drawn) [paragloboside saccharide chain, Galβ1-4GlcNAcβ1-3Galβ1-4Glc]
inhibition of infection of K562 cells with dengue virus (FIG. 9) [5]: inhibited the infection of K562 cells with dengue virus depending on the concentration
